# Experimental data from patent US9428487B2, “Heteroaromatic amides and thioamides as pesticides” (Bayer Intellectual Property GmbH, priority 2008, dated 2016).
# Read-outs that look alike come from different tables or passages of the source.
# Tests used:
# [1] = Determination of log P values by HPLC on reversed-phase column (formic acid method); format: physicochemical; details: reversed-phase C 18, acidic range (pH 3.4), formic acid eluents, 55° C., read-out: logP (HCOOH)
# Description: 1) Description of Method for Determining the Log P Values (Formic Acid Method)
# The log P values reported in the table were determined according to EEC-Directive 79/831 Annex V.A8 by HPLC (High Performance Liquid Chromatography) on a reversed-phase column (C 18). […]
# Eluent A: acetonitrile+1 ml of formic acid/liter. Eluent B: water+0.9 ml of formic acid/liter.
# Gradient: from 10% eluent A/90% eluent B to 95% eluent A/5% eluent B in 4.25 min
# The calibration was effected with unbranched alkan-2-ones (with 3 to 16 carbon atoms), whose log P values are known (determination of the log P values on the basis of the retention times by linear interpolation between two successive alkanones). The lambda-max values were determined with reference to the UV spectra from 200 nm to 400 nm in the maxima of the chromatographic signals.
# [2] = system: green peach aphid (Myzus persicae); assay: Myzus test; format: in vivo; details: read-out: efficacy (aphids killed)
# Description: • Solvent: 78.0 parts by weight of acetone • 1.5 parts by weight of dimethylformamide • Emulsifier: 0.5 part by weight of alkylaryl polyglycol ether
# To produce an appropriate active ingredient formulation, 1 part by weight of active ingredient is mixed with the amounts of solvent and emulsifier specified and the concentrate is diluted to the desired concentration with emulsifier-containing water.
# Chinese cabbage leaf slices (Brassica pekinensis) infested by all stages of the green peach aphid (Myzus persicae) are sprayed with an active ingredient formulation of the desired concentration.
# After the desired time, the efficacy in % is determined 100% means that all aphids have been killed; 0% means that no aphids have been killed.
# [3] = reversed-phase HPLC column (C 18), pH 3.4, HPLC
# [4] = application rate 500 g/ha, spray on Chinese cabbage leaf slices
SMILES,"chromatographic logP [1, 3]","pest or weed control at 500 g/ha [2, 4] [%]",chromatographic logP ([1]; HPLC),pest or weed control at 500 g/ha ([2]; in Brassica rapa) [%]
Cc1nc(-c2cccnc2)sc1C(=O)NCC(F)(F)F [Compound 39],1.63,≥ 70,–,–
Cc1nc(CNC(=O)c2sc(-c3cccnc3)nc2C)no1 [Compound 38],1.21,≥ 70,–,–
Cc1nc(-c2cccnc2)sc1C(=O)N(C)Cc1ncccn1 [Compound 91],1.02,≥ 70,–,–
Cc1nc(-c2cccnc2)sc1C(=O)NC1(c2ncccn2)CC1 [Compound 193],1.21,≥ 70,–,–
Cc1nc(-c2cccnc2)sc1C(=O)N(CC#N)C(=O)C1(F)CC1 [Compound 140],1.93,≥ 70,–,–
O=C(NCc1ncccn1)c1cnc(-c2cccnc2)s1 [Compound 112],0.81,≥ 70,–,–
Cc1nc(-c2cncc(Cl)c2)sc1C(=O)NCc1ncccn1 [Compound 15],1.69,≥ 70,–,–
CN(CC(F)(F)F)C(=O)c1cc(-c2cccnc2)nn1C [Compound 30],1.09,≥ 70,–,–
CCOC(=O)NC(C)(C)CNC(=O)c1sc(-c2cccnc2)nc1C [Compound 120],–,–,1.75,≥ 70
Cc1nc(-c2cccnc2)sc1C(=O)NCc1ncc(Cl)cn1 [Compound 147],1.45,≥ 70,–,–
Cc1nc(-c2cccnc2)sc1C(=O)NC(C)c1ccccn1 (stereo not shown) [Compound 87],1.1,≥ 70,–,–
Cc1cc(CN(C)C(=O)c2cnc(-c3cccnc3)s2)nn1C [Compound 161],1.26,≥ 70,–,–
Cc1nc(-c2cccnc2)sc1C(=O)N(C)C(C)(C)C#N [Compound 47],1.41,≥ 70,–,–
COCN(Cc1ncccn1)C(=O)c1sc(-c2cccnc2)nc1C [Compound 99],1.28,≥ 70,–,–
Cc1nc(-c2cccnc2)sc1C(=O)NN1CCCCC1 [Compound 202],1.39,≥ 70,–,–
Cc1nc(-c2cccnc2)sc1C(=O)NC1CCS(=O)(=O)C1 (stereo not shown) [Compound 110],1.22,≥ 70,–,–
Cc1cc(CNC(=O)c2sc(-c3cccnc3)nc2C)n(C)n1 [Compound 105],1.23,≥ 70,–,–
CCC(=O)N(CC#N)C(=O)c1cnc(-c2cccnc2)s1 [Compound 190],1.77,≥ 70,–,–
CCON(C)C(=O)c1cnc(-c2cccnc2)s1 [Compound 173],1.5,≥ 70,–,–
Cc1nc(-c2cccnc2)sc1C(=O)NC(C)C(F)(F)F (stereo not shown) [Compound 168],1.89,≥ 70,–,–
Cc1nc(-c2cccnc2)sc1C(=O)NC(C)c1ncccn1 (stereo not shown) [Compound 37],1.24,≥ 70,–,–

SMILES,"chromatographic logP [1, 3]","pest or weed control at 500 g/ha [2, 4] [%]",chromatographic logP ([1]; HPLC),pest or weed control at 500 g/ha ([2]; in Brassica rapa) [%]
CCOC1(NC(=O)c2cnc(-c3cccnc3)s2)CC1 [Compound 88],1.31,≥ 70,–,–
CON(C)C(=O)c1sc(-c2cccnc2)nc1C [Compound 143],1.42,≥ 70,–,–
Cc1nc(-c2cccnc2)sc1C(=O)NC1CC(C(F)(F)F)CC(C(F)(F)F)C1 (stereo not shown) [Compound 152],2.95,≥ 70,–,–
CSCCNC(=O)c1sc(-c2cccnc2)nc1C [Compound 44],1.54,≥ 70,–,–
Cc1nc(-c2cccnc2)sc1C(=O)N(C)CCC#N [Compound 163],1.1,≥ 70,–,–
COc1ccc(CN(CC(F)(F)F)C(=O)c2sc(-c3cccnc3)nc2C)cc1 [Compound 185],2.91,≥ 70,–,–
COC(=O)N(CC(F)(F)F)C(=O)c1sc(-c2cccnc2)nc1C [Compound 116],–,–,2.46,≥ 70
CSCC(C)(C)NC(=O)c1sc(-c2cccnc2)nc1C [Compound 73],2.05,≥ 70,–,–
CSCC(C)(C)N(C)C(=O)c1sc(-c2cccnc2)nc1C [Compound 45],2.21,≥ 70,–,–
Cn1nc(-c2cncc(F)c2)cc1C(=O)NCc1ncccn1 [Compound 11],1.24,≥ 70,–,–
Cc1nc(-c2cccnc2)sc1C(=O)NC(C(C)C)C(F)(F)F (stereo not shown) [Compound 146],2.48,≥ 70,–,–
CC(=O)CNC(=O)c1sc(-c2cccnc2)nc1C [Compound 175],1.02,≥ 70,–,–
Cc1nc(-c2cccnc2)sc1C(=O)N(C)CC(=O)OC(C)C [Compound 162],1.78,≥ 70,–,–
Cc1nc(-c2cccnc2)sc1C(=O)NCC#N [Compound 184],1.05,≥ 70,–,–
O=C(NCc1ccccn1)c1cnc(-c2cccnc2)s1 [Compound 106],0.61,≥ 70,–,–
CCOC(=O)C(CC)N(C)C(=O)c1sc(-c2cccnc2)nc1C (stereo not shown) [Compound 141],2.1,≥ 70,–,–
Cc1nc(-c2cccnc2)sc1C(=O)NC(C)CF (stereo not shown) [Compound 97],1.42,≥ 70,–,–
CSC[C@H](C)N(C)C(=O)c1sc(-c2cccnc2)nc1C [Compound 71],1.71,≥ 70,–,–
Cc1nc(-c2cccnc2)sc1C(=O)N(CC(F)(F)F)C(=O)C1(F)CC1 [Compound 58],2.77,≥ 70,–,–
CCOC(CNC(=O)c1sc(-c2cccnc2)nc1C)OCC [Compound 108],1.78,≥ 70,–,–
Cc1nc(-c2cccnc2)sc1C(=O)NN1CCOCC1 [Compound 203],1.23,≥ 70,–,–

SMILES,"chromatographic logP [1, 3]","pest or weed control at 500 g/ha [2, 4] [%]",chromatographic logP ([1]; HPLC),pest or weed control at 500 g/ha ([2]; in Brassica rapa) [%]
Cc1nc(-c2cccnc2)sc1C(=O)NC1(c2ccccn2)CC1 [Compound 167],0.97,≥ 70,–,–
N#CCNC(=O)c1cnc(-c2cccnc2)s1 [Compound 79],0.88,≥ 70,–,–
C#CCOC(=O)N(CC(F)(F)F)C(=O)c1sc(-c2cccnc2)nc1C [Compound 117],–,–,2.63,≥ 70
Cc1nc(-c2cccnc2)sc1C(=O)NCC1(C)CCCO1 (stereo not shown) [Compound 160],1.27,≥ 70,–,–
Cc1nc(-c2cccnc2)sc1C(=O)NC1CCC(C(F)(F)F)CC1 (stereo not shown) [Compound 123],2.42,≥ 70,–,–
Cc1nc(-c2cncc(F)c2)sc1C(=O)NCc1ncccn1 [Compound 10],1.39,≥ 70,–,–
Cc1nc(-c2cccnc2)sc1C(=O)NCC1CCCCO1 (stereo not shown) [Compound 104],1.64,≥ 70,–,–
CCC1(CC)NC(=O)N(NC(=O)c2sc(-c3cccnc3)nc2C)C1=O [Compound 199],1.44,≥ 70,–,–
CCN(CC)C(=O)c1cnc(-c2cccnc2)s1 [Compound 67],1.46,≥ 70,–,–
COC(OC)C(C)NC(=O)c1sc(-c2cccnc2)nc1C (stereo not shown) [Compound 65],1.45,≥ 70,–,–
Cc1nc(-c2cccnc2)sc1C(=O)NC1CSC1 [Compound 194],1.47,≥ 70,–,–
COC(=O)C1(NC(=O)c2sc(-c3cccnc3)nc2C)CC1 [Compound 51],1.3,≥ 70,–,–
CCN(C)C(=O)c1cnc(-c2cccnc2)s1 [Compound 61],1.23,≥ 70,–,–
Cc1nc(-c2cccnc2)sc1C(=O)NC(C)(C)CS(C)(=O)=O [Compound 114],1.28,≥ 70,–,–
COC1(NC(=O)c2cnc(-c3cccnc3)s2)CC1 [Compound 70],1.14,≥ 70,–,–
CSCCN(C)C(=O)c1cnc(-c2cccnc2)s1 [Compound 148],1.38,≥ 70,–,–
Cc1nc(-c2cccnc2)sc1C(=O)NCC(C)(F)F [Compound 36],1.59,≥ 70,–,–
Cc1nc(-c2cccnc2)sc1C(=O)N(C)CCF [Compound 85],1.23,≥ 70,–,–
Cc1nc(-c2cccnc2)sc1C(=O)NCc1cc(C)n(C)n1 [Compound 145],1.38,≥ 70,–,–
CN(Cc1ncccn1)C(=O)c1cnc(-c2cccnc2)s1 [Compound 102],1.3,≥ 70,–,–
